The values below come from patent US12599613B2, “Composition comprising dutasteride” (Chong Kun Dang Pharmaceutical Corp., priority 2018, dated 2026).

The series can be described thus: Dissolution rate of pharmaceutical composition in vitro (Korean Pharmacopoeia Method I, basket). The note with it: 56 mg dutasteride, 900 mL 1% w/v sodium dodecyl sulfate, 37° C., 100 rpm. The series is classed as physicochemical. The protocol:
A dissolution rate of the inventive compositions in vitro was identified through the following experiment. Example 32 was filled into a disposable syringe in such an amount that corresponds to 56 mg of dutasteride and then injected into a dissolution medium, and Comparative Example 1 was directly put into a rotating basket in such an amount that corresponds to 56 mg of dutasteride. This experiment was performed according to the dissolution test method I in the 10th revision of the Korean Pharmacopocia and the conditions for dissolution are as follows.
<Conditions for Dissolution of Pharmaceutical Composition>
• Dissolution method: Method I of the Korean Pharmacopoeia (Appratus I—Basket) • Dissolution medium: 900 mL of solution containing 1% w/v sodium dodecyl sulfate • Dissolution temperature: 37±0.5° C. • Rotation speed: 100 rpm • Test hour: 1, 3, 6, 12 and 24 hours
With regard to a concentration of dutasteride in a dissolution sample, a dissolution rate for 24 hours was analyzed with HPLC under the condition of Experimental Example 1 and the results thereof were shown in FIG. 2.

Consider `C[C@]12C=CC(=O)N[C@@H]1CC[C@@H]1[C@@H]2CC[C@]2(C)[C@@H](C(=O)Nc3cc(C(F)(F)F)ccc3C(F)(F)F)CC[C@@H]12` [Comparative Example 1, dutasteride], for which the “state of dutasteride in the dissolution medium (dissolved / precipitated)” value is reported as “a part of the drug only was dissolved into the dissolution medium”. In addition, the “dissolution rate with an elapse of time” value (24 hours) is listed as “hardly increased with an elapse of time from one hour after”.
